According to patent publication US20110040088A1, “FUSED HETEROCYCLIC COMPOUNDS” (priority 2003, published 2011):
Structures can show the parent of a compound that is named as a salt. Where two headings read alike, the source gives them in different places.

Assays:
[1] = target: human recombinant 5-HT2B receptor (Homo sapiens, UniProt P41595); test: 5-HT2B receptor radioligand binding ([3H]mesulergine, CHO membranes);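 further: competitive displacement binding on membranes of CHO cells stably expressing the receptor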
human recombinant 5-HT2B receptor, sequence (P41595 whole entry): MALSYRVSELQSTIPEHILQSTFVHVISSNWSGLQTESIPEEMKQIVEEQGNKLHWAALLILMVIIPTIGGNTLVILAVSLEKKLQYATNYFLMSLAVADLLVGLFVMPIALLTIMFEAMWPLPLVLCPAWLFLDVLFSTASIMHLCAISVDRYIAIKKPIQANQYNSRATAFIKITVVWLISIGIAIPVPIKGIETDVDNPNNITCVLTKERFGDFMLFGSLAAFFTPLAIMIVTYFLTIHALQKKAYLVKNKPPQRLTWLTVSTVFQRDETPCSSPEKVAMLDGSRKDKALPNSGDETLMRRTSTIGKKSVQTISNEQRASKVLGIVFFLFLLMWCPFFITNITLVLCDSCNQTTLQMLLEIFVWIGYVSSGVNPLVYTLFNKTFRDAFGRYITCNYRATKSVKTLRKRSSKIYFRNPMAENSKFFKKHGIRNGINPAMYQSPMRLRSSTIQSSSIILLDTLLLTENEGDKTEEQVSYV
Method: (§1) Affinity for 5HT2 Receptor Binding Sites
(§2) Receptor binding was performed using the human recombinant 5-HT2A (GB: X57830), 5-HT2B (GB: Z36748) and 5-HT2c (GB: M81778) receptors. The affinity of the compounds for the 3 different human 5-HT2 receptor subtypes was evaluated by competitive radioligand binding assays using [^3H]ketanserin (h5-HT2A) or [^3H]mesulergine (h5-HT2B and h5-HT2c). The assays were performed on membranes prepared from NIH3T3 stably transfected with h5-HT2A or CHO stably transfected with h5-HT2B and h5-HT2C.

[2] = target: 5-HT2A receptor (UniProt P28223); test: 5-HT2A receptor radioligand binding ([3H]ketanserin);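 further: competitive displacement binding on membranes, either from rat cerebral cortex or from NIH3T3 cells stably expressing human 5-HT2A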
Method: The affinity of the compounds for the rat 5-HT2A receptor was evaluated by competitive radioligand binding assay using [^3H]ketanserine as the radioligand. The assay was performed on membranes from rat cortex as previously described (Schotte, A. et al., Psychopharmacology (1996) 124: 57-73). Briefly, brain tissue (rat cortex) was homogenized in 20 volumes per wet weight tissue of Tris-HCl buffer (50 mM, pH 7.4). The total membrane fraction was collected by centrifugation and washed by subsequent centrifugation runs (25 min at 25,000 g at 4° C.). Membranes were re-suspended in Tris-HCl buffer (50 mM, pH 7.4) containing 1 nM [^3H]ketanserin. Non-specific binding was estimated in the presence of 10 μM risperidone.

[3] = target: T1, human recombinant 5-HT2C receptor (Homo sapiens, UniProt P28335); test: 5-HT2C receptor radioligand binding ([3H]mesulergine, CHO membranes);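 further: competitive displacement of the tritiated ligand, using membranes from CHO cells stably transfected with the human receptor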
T1 sequence (P28335 33-458): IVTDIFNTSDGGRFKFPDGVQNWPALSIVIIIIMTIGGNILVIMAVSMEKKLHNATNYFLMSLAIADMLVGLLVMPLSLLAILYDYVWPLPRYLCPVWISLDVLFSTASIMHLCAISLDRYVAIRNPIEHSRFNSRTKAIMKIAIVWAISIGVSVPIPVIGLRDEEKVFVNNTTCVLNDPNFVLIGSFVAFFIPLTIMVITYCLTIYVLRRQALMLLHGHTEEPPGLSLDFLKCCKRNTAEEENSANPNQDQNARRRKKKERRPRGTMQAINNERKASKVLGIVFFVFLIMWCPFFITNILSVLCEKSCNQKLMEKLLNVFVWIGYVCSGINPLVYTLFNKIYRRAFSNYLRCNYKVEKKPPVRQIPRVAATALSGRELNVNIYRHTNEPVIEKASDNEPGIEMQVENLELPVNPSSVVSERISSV
Method: as §1, §2

[4] = target: T2, rat 5-HT7a receptor (Rattus norvegicus, UniProt P32305); test: 5-HT7 receptor radioligand binding ([3H]5-CT, membranes of transfected HEK-293 cells); settings: rat 5-HT7a in HEK-293 membranes, 1 nM [3H]5-CT
T2 construct: expressed in transfected cells
T2 sequence (P32305 whole entry): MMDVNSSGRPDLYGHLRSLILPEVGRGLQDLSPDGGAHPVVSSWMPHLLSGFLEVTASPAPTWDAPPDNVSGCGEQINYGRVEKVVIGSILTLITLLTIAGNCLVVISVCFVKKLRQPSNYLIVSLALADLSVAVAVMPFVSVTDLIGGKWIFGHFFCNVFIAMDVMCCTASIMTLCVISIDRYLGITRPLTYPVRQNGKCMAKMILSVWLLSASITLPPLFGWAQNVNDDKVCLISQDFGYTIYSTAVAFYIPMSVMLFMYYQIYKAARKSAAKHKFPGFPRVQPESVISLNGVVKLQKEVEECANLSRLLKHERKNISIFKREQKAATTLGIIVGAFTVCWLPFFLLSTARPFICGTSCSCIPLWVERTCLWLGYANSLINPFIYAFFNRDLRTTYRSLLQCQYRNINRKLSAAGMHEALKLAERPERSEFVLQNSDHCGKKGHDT

[5] = read-out: Ki 5-HT2A, table does not say whether rat cortex or human recombinant (NIH3T3) receptor

Row | Compound | Ki [1] | Ki [2, 5] | Ki [3] | Ki [4] | Ki ([2]; read-out: Ki 5-HT2A, table does not say whether rat cortex or human recombinant (NIH3T3) receptor, citrate salt)
1 | COc1ccc(-c2c3c(nn2C2CCCC2)CCNCC3)cc1 [Example 220, 2-Cyclopentyl-3-(4-methoxy-phenyl)-2,4,5,6,7,8-hexahydro-1,2,6-triaza-azulene] | 0.55 nM | 1.3 nM | 6.8 nM | 55 nM | –
2 | CCCCn1cc(-c2ccc(C)cc2)c2c1CCNC2 [Example 22, 1-Butyl-3-p-tolyl-4,5,6,7-tetrahydro-1H-pyrrolo[3,2-c]pyridine] | – | – | – | 45 nM | –
3 | CN1CCc2nn(C3CCCC3)c(-c3ccc(F)cc3)c2CC1 [Example 302, 2-Cyclopentyl-3-(4-fluoro-phenyl)-6-methyl-2,4,5,6,7,8-hexahydro-1,2,6-triaza-azulene] | 1.3 nM | 0.2 nM | 21.5 nM | 100 nM | –
4 | C=CCCn1nc(-c2ccc(Cl)cc2)c2c1CCNCC2 [Example 111, 1-But-3-enyl-3-(4-chloro-phenyl)-1,4,5,6,7,8-hexahydro-1,2,6-triaza-azulene] | – | – | – | 17 nM | –
5 | c1cc(-c2c3c(nn2C2CC2)CCNCC3)cs1 [Example 285, 2-Cyclopropyl-3-thiophen-3-yl-2,4,5,6,7,8-hexahydro-1,2,6-triaza-azulene] | 6 nM | 60 nM | 500 nM | 29 nM | –
6 | CC1Cc2nn(C3CCCC3)c(-c3ccc(F)cc3)c2CCN1 (stereo not shown) [Example 308, 2-Cyclopentyl-3-(4-fluoro-phenyl)-7-methyl-2,4,5,6,7,8-hexahydro-1,2,6-triaza-azulene] | 3 nM | 2 nM | 162 nM | 5200 nM | –
7 | Cc1ccc(-c2c3c(nn2C2CCCC2)CCNCC3)cc1 [Example 217, 2-Cyclopentyl-3-p-tolyl-2,4,5,6,7,8-hexahydro-1,2,6-triaza-azulene] | 0.65 nM | 1 nM | 10 nM | 25 nM | –
8 | CC(C)n1nc2c(c1-c1ccc([N+](=O)[O-])cc1)CCNCC2 [Example 253, 2-Isopropyl-3-(4-nitro-phenyl)-2,4,5,6,7,8-hexahydro-1,2,6-triaza-azulene] | 25 nM | – | 625 nM | 75 nM | –
9 | CS(=O)(=O)Nc1ccc(Cn2nc(-c3ccccc3)c3c2CCNCC3)cc1 [Example 100, N-[4-(3-Phenyl-5,6,7,8-tetrahydro-4H-1,2,6-triaza-azulen-1-ylmethyl)-phenyl]-methanesulfonamide] | – | – | – | 30 nM | –
10 | CCn1nc2c(c1-c1ccc(Cl)cc1)CCNCC2 [Example 64, 3-(4-Chloro-phenyl)-2-ethyl-2,4,5,6,7,8-hexahydro-1,2,6-triaza-azulene] | – | 18 nM | – | 19 nM | –
11 | Clc1ccc(-c2nn(Cc3ccccc3)c3c2CCNCC3)cc1 [Example 273, 1-Benzyl-3-(4-chloro-phenyl)-1,4,5,6,7,8-hexahydro-1,2,6-triaza-azulene citrate salt] | – | – | – | 5 nM | 400 nM
12 | CC1Cc2nn(C(C)C)c(-c3ccccc3)c2CCN1 (stereo not shown) [Example 311, 2-Isopropyl-7-methyl-3-phenyl-2,4,5,6,7,8-hexahydro-1,2,6-triaza-azulene] | 100 nM | 140 nM | 3000 nM | 80 nM | –
13 | Cc1ccc(-c2c3c(nn2C2CCCC2)CC(C)NCC3)cc1 (stereo not shown) [Example 310, 2-Cyclopentyl-7-methyl-3-p-tolyl-2,4,5,6,7,8-hexahydro-1,2,6-triaza-azulene] | 0.4 nM | 0.2 nM | 30 nM | 475 nM | –
14 | Fc1cc(-c2c3c(nn2C2CCCC2)CCNCC3)ccc1Cl [Example 241, 3-(4-Chloro-3-fluoro-phenyl)-2-cyclopentyl-2,4,5,6,7,8-hexahydro-1,2,6-triaza-azulene] | 9.5 nM | 9 nM | 38 nM | 310 nM | –
15 | Cc1ccccc1Cn1nc(-c2ccc(Cl)cc2)c2c1CCNCCC2 [Example 174, 3-(4-Chloro-phenyl)-1-(2-methyl-benzyl)-4,5,6,7,8,9-hexahydro-1H-1,2,7-triaza-cyclopentacyclooctene] | – | – | – | 40 nM | –
16 | Clc1ccc(-c2nn(-c3ccccc3)c3c2CCNCC3)cc1 [Example 172, 3-(4-Chloro-phenyl)-1-phenyl-1,4,5,6,7,8-hexahydro-1,2,6-triaza-azulene] | – | – | – | 37 nM | –
17 | c1ccc(Cn2cc(-c3ccccc3)c3c2CCNCC3)cc1 [Example 26, 1-Benzyl-3-phenyl-1,4,5,6,7,8-hexahydro-pyrrolo[2,3-d]azepine] | – | – | – | 18 nM | –
18 | CCc1ccc(-c2c3c(nn2CC)CCNCC3)cc1 [Example 257, 2-Ethyl-3-(4-ethyl-phenyl)-2,4,5,6,7,8-hexahydro-1,2,6-triaza-azulene] | 2 nM | – | 110 nM | 9 nM | –

Row | Compound | Ki [1] | Ki [2, 5] | Ki [3] | Ki [4] | Ki ([2]; read-out: Ki 5-HT2A, table does not say whether rat cortex or human recombinant (NIH3T3) receptor, citrate salt)
19 | Clc1ccc(-c2nn(C3CCCCCCC3)c3c2CCNCC3)cc1 [Example 255, 3-(4-Chloro-phenyl)-1-cyclooctyl-1,4,5,6,7,8-hexahydro-1,2,6-triaza-azulene] | – | – | – | 60 nM | –
20 | Cc1ccc(-c2cn(Cc3ccccc3)c3c2CNCC3)cc1 [Example 18, 1-Benzyl-3-p-tolyl-4,5,6,7-tetrahydro-1H-pyrrolo[3,2-c]pyridine] | – | – | – | 25 nM | –
21 | CCC(CC)Cn1nc(-c2ccc(Cl)cc2)c2c1CCNCC2 [Example 114, 3-(4-Chloro-phenyl)-1-(2-ethyl-butyl)-1,4,5,6,7,8-hexahydro-1,2,6-triaza-azulene] | 90 nM | – | 400 nM | 32 nM | –
22 | Clc1ccc(-c2nn(CC3CCOCC3)c3c2CCNCC3)cc1 [Example 120, 3-(4-Chloro-phenyl)-1-(tetrahydro-pyran-4-ylmethyl)-1,4,5,6,7,8-hexahydro-1,2,6-triaza-azulene] | – | – | – | 40 nM | –
23 | CC(C)(C)n1nc2c(c1-c1ccccc1)CCNCC2 [Example 215, 2-tert-Butyl-3-phenyl-2,4,5,6,7,8-hexahydro-1,2,6-triaza-azulene] | 95 nM | 8 nM | – | 30 nM | –
24 | CC(C)Cn1nc(-c2ccc(Cl)cc2)c2c1CCNCC2 [Example 118, 3-(4-Chloro-phenyl)-1-isobutyl-1,4,5,6,7,8-hexahydro-1,2,6-triaza-azulene] | – | 20 nM | – | 8 nM | –
25 | O=[N+]([O-])c1ccc(-c2cn(Cc3ccccc3)c3c2CNCC3)cc1 [Example 1, 1-Benzyl-3-(4-nitro-phenyl)-4,5,6,7-tetrahydro-1H-pyrrolo[3,2-c]pyridine] | – | – | – | 120 nM | –
26 | OCCCCCn1nc(-c2ccc(Cl)cc2)c2c1CCNCC2 [Example 87, 5-[3-(4-Chloro-phenyl)-5,6,7,8-tetrahydro-4H-1,2,6-triaza-azulen-1-yl]-pentan-1-ol] | – | – | – | 33 nM | –
27 | COc1ccc(CN2CCc3[nH]nc(-c4ccc(Cl)cc4)c3CC2)cc1OC [Example 167, 3-(4-Chloro-phenyl)-6-(3,4-dimethoxy-benzyl)-1,4,5,6,7,8-hexahydro-1,2,6-triaza-azulene] | 350 nM | – | 10000 nM | 75 nM | –
28 | CCC(CC)n1nc2c(c1-c1cccs1)CCNCC2 [Example 191, 2-(1-Ethyl-propyl)-3-thiophen-2-yl-2,4,5,6,7,8-hexahydro-1,2,6-triaza-azulene] | – | – | – | 30 nM | –
29 | Clc1ccc(-c2nn(Cc3ccc4c(c3)OCO4)c3c2CCNCC3)cc1 [Example 119, 1-Benzo[1,3]dioxo1-5-ylmethyl-3-(4-chloro-phenyl)-1,4,5,6,7,8-hexahydro-1,2,6-triaza-azulene] | – | – | – | 39 nM | –
30 | Clc1ccc(-c2nn(CC3CCCCC3)c3c2CCNCC3)cc1 [Example 117, 3-(4-Chloro-phenyl)-1-cyclohexylmethyl-1,4,5,6,7,8-hexahydro-1,2,6-triaza-azulene] | – | – | – | 20 nM | –
31 | Clc1ccc(-c2c3c(nn2C2CCCCC2)CCNCC3)cc1 [Example 178, 3-(4-Chloro-phenyl)-2-cyclohexyl-2,4,5,6,7,8-hexahydro-1,2,6-triaza-azulene] | 3 nM | 3 nM | – | 85 nM | –
32 | O=[N+]([O-])c1ccc(Cn2nc(-c3ccc(Cl)cc3)c3c2CCNCC3)cc1 [Example 98, 3-(4-Chloro-phenyl)-1-(4-nitro-benzyl)-1,4,5,6,7,8-hexahydro-1,2,6-triaza-azulene] | – | – | – | 40 nM | –
33 | CCCN1CCc2c(-c3ccccc3)nn(Cc3ccccc3)c2CC1 [Example 57, 1-Benzyl-3-phenyl-6-propyl-1,4,5,6,7,8-hexahydro-1,2,6-triaza-azulene] | – | – | – | 15 nM | –
34 | CCn1nc2c(c1-c1ccc(C)cc1)CCNCC2 [Example 214, 2-Ethyl-3-p-tolyl-2,4,5,6,7,8-hexahydro-1,2,6-triaza-azulene] | 2 nM | – | 170 nM | 5 nM | –
35 | Cc1c(-c2ccccc2)c2c(n1Cc1ccccc1)CCNC2 [Example 17, 1-Benzyl-2-methyl-3-phenyl-4,5,6,7-tetrahydro-1H-pyrrolo[3,2-c]pyridine] | – | – | – | 70 nM | –
36 | Fc1ccc(Cn2nc(-c3ccc(Cl)cc3)c3c2CCNCC3)c(F)c1 [Example 108, 3-(4-Chloro-phenyl)-1-(2,4-difluoro-benzyl)-1,4,5,6,7,8-hexahydro-1,2,6-triaza-azulene] | 100 nM | – | 800 nM | 9 nM | –
